Several values for one entry are separate records, joined by “and”; a condition that tells them apart may be missing. Equal entries are not always repeated. Entries after “also recorded” stand apart in the source; their conditions may differ.
Assays:
[1] = n-octanol/phosphate buffer partition coefficient; assay type: physicochemical; details: n-octanol / 0.1 M phosphate buffer pH 7.4; read-out: n-octanol/phosphate buffer partition coefficient (log P)
Experimental: The n-octanol/phosphate buffer partition coefficients of [^77Br]2 were 2.36 ± 0.06 which were lower than [^77Br]3 (3.02 ± 0.04). These values are lower than radioiodinated compounds, [^125I]4 and [^125I]5 at 2.71 ± 0.03 and 3.19 ± 0.17, respectively.
Partition coefficients of [^77Br]2 and [^77Br]3 into n-octanol and 0.1 M phosphate buffer (PB) pH 7.4 were determined using the method described previously. The measurement was performed in quadruplicate. The partition coefficient was determined by calculating the ratio of cpm/mL of n-octanol to that of buffer and expressed as log P. Radioactivity of each layer were counted by a gamma counter.

[2] = In vitro stability in 0.1 M PBS (pH 7.4); assay type: physicochemical; details: 24 h incubation at 37 °C, purity by TLC
Experimental: The stability of [^77Br]2 and [^77Br]3 in 0.1 M phosphate-buffered saline (PBS) (pH 7.4) was high (93.6 ± 0.9% and 93.0 ± 0.6%, respectively). There was no significant decomposition after 24 h incubation at 37 °C for either radiotracer.
The stability of radiolabeled compounds, [^77Br]2 and [^77Br]3, were analyzed as described previously. The purities radiolabeled compounds were determined by TLC using chloroform/methanol = 5/1 and 20/1 as a developing solvent for [^77Br]2 and [^77Br]3, respectively. The results were confirmed by RP-HPLC.

[3] = tested on: BxPC3-luc cells (PDGFRβ-positive); test: Cellular uptake study (double tracer method); assay type: cell-based; details: BxPC3-luc (PDGFRβ-positive) vs MCF7 (PDGFRβ-negative), 0.5–4 h
Experimental: Figure 5 Cellular uptake study. Time-dependent accumulation of (a) [^77Br]2 and [^125I]4 (b) [^77Br]3 and [^125I]5 in BxPC3-luc and MCF7 cells. Data were presented as mean ± SD for three samples.
Radiotracer uptake experiments in tumor cells were performed using BxPC3-luc and MCF7 cell lines. To compare the uptake between radiobrominated compounds, [^77Br]2 and [^77Br]3, and the corresponding radioiodinated compounds, [^125I]4 and [^125I]5, the cellular uptake experiments were performed by a double tracer method as described previously with a slight modification[30],[31],[35]. Briefly, the cells were seeded in RPMI 1640 medium containing 10% FBS and antibiotics on six-well plates (2 × 10^5 cells/well) for 24 h in a 5% CO2 incubator at 37 °C. After removal of medium, cells were incubated in medium without FBS containing [^77Br]2 (3.7 kBq/well) and [^125I]4 (3.7 kBq/well) or [^77Br]3 (3.7 kBq/well) and [^125I]5 (3.7 kBq/well) and tween-80 (0.1%) for 0.5, 1, 2 and 4 h. Radioiodinated compounds were prepared as described previously][24]. Cells were washed with ice-cold 1 mL of PBS and dissolved using 0.5 mL of 1 M NaOH and wells were washed with 1 M NaOH aqueous solution (0.5 mL). The radioactivity of pooled basic fractions was counted by a gamma counter. A range between 16 and 71 keV was used for measuring ^125I and between 95 and 700 for ^77Br. When radioactivity of ^77Br was counted, the crossover of ^125I activity into the ^77Br channel was negligible. More than one month after the experiment, the radioactivity of ^125I was determined because at that time ^77Br has been decayed and its radioactivity was negligible. The protein in the cell was quantified by a BCA Protein Assay Kit. All data were expressed as %dose/µg protein.

BxPC3-luc cells = test: In vitro blocking study; assay type: cell-based; details: inhibitor 1, 2 or 3 at 10 µM, 10 min pretreatment
Experimental: Blocking studies using 1, 2, and 3 were performed (Fig. 6). Pretreatment of an excess amount of 1 or 2 decreased uptakes of [^77Br]2 in BxPC3-luc cells. The uptake of [^77Br]3 was inhibited by a pretreatment using 1 or 3 in the same way.
Figure 6 In vitro blocking studies of (a) [^77Br]2 and (b) [^77Br]3 in BxPC3-luc and MCF7 cells. Data were presented as mean ± SD for three samples. Significance was determined using a one-way ANOVA followed by Dunnett’s post hoc test (^*p < 0.001, vs control [^77Br]2 or [^77Br]3).
For in vitro blocking experiment, inhibitor (1, 2, or 3 with final concentration 10 µM) in 1 mL of medium without FBS was added to wells containing 2 × 10^5 cells/well. After 10 min incubation, [^77Br]2 or [^77Br]3 (3.7 kBq/well) in 1 mL of medium without FBS was added to each well. Radioactivity and protein concentration in the cells were determined by the same method above-mentioned.

BxPC3-luc tumor = test: Biodistribution in BxPC3-luc tumor-bearing mice; assay type: in vivo, BALB/c nu/nu mice; details: for Radioactivity in Blood / Radioactivity in Bone / Radioactivity in Brain / Radioactivity in BxPC3-luc tumor / Radioactivity in Heart / Radioactivity in Kidney / Radioactivity in Large intestine / Radioactivity in Liver / Radioactivity in Lung / Radioactivity in Muscle / Radioactivity in Pancreas / Radioactivity in Small intestine / Radioactivity in Spleen / Radioactivity in Stomach: i.v. co-injection, 1 h
Experimental: We investigated the biodistribution of the radiotracers in BxPC3-luc tumor-bearing mice by co-injecting [^77Br]2 with [^125I]4 (Table 3), and [^77Br]3 with [^125I]5 (Table 4).
Animal experiments were conducted in strict accordance with the Guidelines for the Care and Use of Laboratory Animals of Kanazawa University. The animal experimental protocols used were approved by the Committee on Animal Experimentation of Kanazawa University (Permit Number: AP-163766). The animals were housed with free access to food and water at approximately 23 °C with a 12 h light/dark schedule. ddY mice (six-week-old, male, 27–30 g) and BALB/c nu/nu mice (four-week-old, female, 12–17 g) were purchased from Japan SLC Inc. (Hamamatsu, Japan). For preparing the tumor-bearing mice, BxPC3-luc cells (5 × 10^6 cells) were subcutaneously injected into the left shoulder of BALB/c nu/nu mice. The tumor reached palpable size after two weeks of the inoculation.
Mice were intravenously injected via the tail with 100 µL of saline solution of [^77Br]2 and [^125I]4 or [^77Br]3 and [^125I]5 (74 kBq, respectively), containing 10% ethanol and 1% tween-80. The ddY mice were sacrificed at 10 min, 1, 4, and 24 h postinjection. Meanwhile, tumor-bearing mice were sacrificed at 1 h postinjection.
Tissues in mice were resected and weighed. The radioactivity of the tissues was counted by a gamma counter and counts were corrected for background radiation. The data were expressed as percent injection dose per gram tissue (%ID/g).

Row | SMILES | logP [1] | Stability in 0.1 M PBS (pH 7.4) [2] [%] | Cellular uptake in BxPC3-luc cells [3] | Uptake in BxPC3-luc cells after pretreatment with excess inhibitor (BxPC3-luc cells) | Tumor-to-blood ratio of radioactivity (BxPC3-luc tumor; 1 h postinjection) | Radioactivity in Blood (BxPC3-luc tumor) | Radioactivity in Bone (BxPC3-luc tumor) | Radioactivity in Brain (BxPC3-luc tumor) | Radioactivity in BxPC3-luc tumor (BxPC3-luc tumor) | Radioactivity in Heart (BxPC3-luc tumor) | Radioactivity in Kidney (BxPC3-luc tumor) | Radioactivity in Large intestine (BxPC3-luc tumor) | Radioactivity in Liver (BxPC3-luc tumor) | Radioactivity in Lung (BxPC3-luc tumor) | Radioactivity in Muscle (BxPC3-luc tumor) | Radioactivity in Pancreas (BxPC3-luc tumor) | Radioactivity in Small intestine (BxPC3-luc tumor) | Radioactivity in Spleen (BxPC3-luc tumor) | Radioactivity in Stomach (BxPC3-luc tumor)
1 | COCCOc1ccc2c(c1)ncn2-c1ccc2c([77Br])ccc(N3CCC(N)CC3)c2n1 [[^77Br]2, [^77Br]1-{5-Bromo-2-[5-(2-methoxyethoxy)-1H-benzo[d]imidazol-1-yl]quinoline-8-yl}piperidin-4-amine] | 2.36 ± 0.06 | 93.6 ± 0.9 | higher than that in MCF7 cells; also recorded: higher uptake of [^77Br]2 than that of [^77Br]3 | decreased | 2.8 | 0.58 (0.10) %injected dose/gram of tissue | 1.15 (0.09) %injected dose/gram of tissue | 0.14 (0.03) %injected dose/gram of tissue | 1.61 %injected dose/gram of tissue and 1.61 ± 0.24 %injected dose/gram of tissue and 1.61 (0.24) %injected dose/gram of tissue | 1.88 (0.33) %injected dose/gram of tissue | 17.39 (4.03) %injected dose/gram of tissue | 3.22 (0.40) %injected dose/gram of tissue | 11.07 (1.04) %injected dose/gram of tissue | 10.31 (1.91) %injected dose/gram of tissue | 0.94 (0.08) %injected dose/gram of tissue | 6.61 (1.00) %injected dose/gram of tissue | 51.52 (9.93) %injected dose/gram of tissue | 2.94 (0.54) %injected dose/gram of tissue | 0.96 (0.20) %injected dose /organ
2 | COCCOc1ccc2c(c1)ncn2-c1ccc2cccc(N3CCC(NC(=O)c4cccc([77Br])c4)CC3)c2n1 [[^77Br]3, [^77Br]-N-3-bromobenzoyl-1-{2-[5-(2-methoxyethoxy)-1H-benzo[d]imidazol-1-yl]quinolin-8-yl}-piperidin-4-amine] | 3.02 ± 0.04 | 93.0 ± 0.6 | more highly accumulated in BxPC3-luc cells than in MCF7 cells | inhibited | – | 1.16 (0.02) %injected dose/gram of tissue | 1.32 (0.08) %injected dose/gram of tissue | 0.17 (0.02) %injected dose/gram of tissue | 1.15 %injected dose/gram of tissue and 1.15 (0.35) %injected dose/gram of tissue | 1.83 (0.04) %injected dose/gram of tissue | 5.95 (0.16) %injected dose/gram of tissue | 5.53 (0.96) %injected dose/gram of tissue | 19.82 (2.48) %injected dose/gram of tissue | 3.02 (0.51) %injected dose/gram of tissue | 1.05 (0.18) %injected dose/gram of tissue | 2.15 (0.13) %injected dose/gram of tissue | 32.72 (3.10) %injected dose/gram of tissue | 2.51 (0.17) %injected dose/gram of tissue | 0.67 (0.14) %injected dose /organ
